Test results published in ChEMBL document CHEMBL1201862, “PubChem BioAssay data set” (2004).
Active and inactive are the calls of the source.

Legend:
[1] = reduction of Shn3 3'UTR-driven luciferase in osteoblasts – cell-based, Clone20 osteoblasts, firefly luciferase, cherry-picked, dose response (AID 624132); type: functional;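 note: firefly luciferase luminescence from reporter carrying the Shn3 3'UTR in osteoblasts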
[2] = loss of viability in HepG2 cells – cell-based, CellTiter-Glo, cherry-picked, cytotoxicity control for Shn3 inhibitor project, dose response (AID 624134); type: functional
[3] = non-specific 3'UTR reporter inhibition in Clone20-Shn3RL – cell-based, Renilla luciferase, cherry-picked, counter-screen for Shn3 inhibitor project, dose response (AID 624133); type: functional
Protein Wnt-3a = Protein Wnt-3a (Mus musculus, UniProt P27467); test: antagonism of Wnt3a pathway luciferase reporter – Wnt-LIGHT cells, luminescence, selectivity assay for Gli-SUFU antagonist project, dose response (AID 651570); type: functional; settings: read-out: IC50_Mean;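 note: Wnt-LIGHT reporter cells stimulated with conditioned medium from Wnt3a-producing cells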
[4] = target: T1, Aryl hydrocarbon receptor (Homo sapiens, UniProt P35869); settings: Potency;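 note: confirmatory quantitative high-throughput screen measuring activation of the AhR signaling pathway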
T1 sequence (P35869 whole entry): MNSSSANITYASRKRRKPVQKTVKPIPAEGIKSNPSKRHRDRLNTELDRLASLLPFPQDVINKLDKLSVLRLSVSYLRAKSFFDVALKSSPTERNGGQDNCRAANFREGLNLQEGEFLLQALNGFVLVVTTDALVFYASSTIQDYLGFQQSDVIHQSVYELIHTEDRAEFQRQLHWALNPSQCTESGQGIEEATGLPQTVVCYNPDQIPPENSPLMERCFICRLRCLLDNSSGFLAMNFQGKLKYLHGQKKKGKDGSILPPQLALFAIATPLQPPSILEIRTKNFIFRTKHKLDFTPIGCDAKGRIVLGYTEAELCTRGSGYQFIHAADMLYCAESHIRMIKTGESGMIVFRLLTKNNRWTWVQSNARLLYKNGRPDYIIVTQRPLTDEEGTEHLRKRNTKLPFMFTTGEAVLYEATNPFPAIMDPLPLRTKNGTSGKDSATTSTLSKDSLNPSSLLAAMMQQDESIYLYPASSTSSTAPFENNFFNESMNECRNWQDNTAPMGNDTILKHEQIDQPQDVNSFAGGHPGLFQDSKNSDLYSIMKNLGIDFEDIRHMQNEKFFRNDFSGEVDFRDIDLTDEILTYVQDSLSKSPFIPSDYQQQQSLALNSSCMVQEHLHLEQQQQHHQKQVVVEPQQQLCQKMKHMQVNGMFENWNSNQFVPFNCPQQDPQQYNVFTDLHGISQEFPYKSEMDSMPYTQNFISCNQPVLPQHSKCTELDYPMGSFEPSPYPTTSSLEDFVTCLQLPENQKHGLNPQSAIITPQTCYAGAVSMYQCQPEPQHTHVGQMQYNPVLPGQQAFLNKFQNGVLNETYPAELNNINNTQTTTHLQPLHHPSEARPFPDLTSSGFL

[5] = target: Serine/threonine-protein kinase pim-1 (Homo sapiens, UniProt P11309); type: functional
Serine/threonine-protein kinase pim-1, sequence (P11309 whole entry, canonical isoform): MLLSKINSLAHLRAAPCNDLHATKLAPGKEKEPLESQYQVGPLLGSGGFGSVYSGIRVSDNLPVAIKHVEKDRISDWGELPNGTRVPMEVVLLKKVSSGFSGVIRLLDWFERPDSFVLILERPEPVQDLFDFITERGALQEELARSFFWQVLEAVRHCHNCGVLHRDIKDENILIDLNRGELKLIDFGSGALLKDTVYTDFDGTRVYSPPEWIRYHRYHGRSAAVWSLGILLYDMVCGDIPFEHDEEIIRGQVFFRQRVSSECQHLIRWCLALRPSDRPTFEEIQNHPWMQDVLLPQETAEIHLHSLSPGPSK

[6] = target: Casein kinase I isoform gamma-1 (Homo sapiens, UniProt Q9HCP0); type: functional;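 note: measured as the CSNK1G1 member of a kinome profiling panel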
[7] = target: Dual specificity protein kinase CLK4 (Homo sapiens, UniProt Q9HAZ1); type: functional
Dual specificity protein kinase CLK4, sequence (Q9HAZ1 whole entry): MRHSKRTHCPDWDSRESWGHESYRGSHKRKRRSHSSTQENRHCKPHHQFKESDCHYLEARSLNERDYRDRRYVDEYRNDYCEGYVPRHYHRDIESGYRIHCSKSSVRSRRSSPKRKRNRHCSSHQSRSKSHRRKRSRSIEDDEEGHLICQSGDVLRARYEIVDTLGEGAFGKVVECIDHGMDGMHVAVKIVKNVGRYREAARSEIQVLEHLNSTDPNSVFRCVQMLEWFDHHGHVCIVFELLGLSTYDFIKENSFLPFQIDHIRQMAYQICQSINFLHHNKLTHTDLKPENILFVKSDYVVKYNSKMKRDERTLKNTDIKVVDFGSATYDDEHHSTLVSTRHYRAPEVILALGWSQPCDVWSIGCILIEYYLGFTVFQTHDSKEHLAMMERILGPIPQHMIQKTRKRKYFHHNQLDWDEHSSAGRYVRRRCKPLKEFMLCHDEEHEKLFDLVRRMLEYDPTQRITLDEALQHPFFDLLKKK

[8] = target: Adenosylmethionine-8-amino-7-oxononanoate aminotransferase (Mycobacterium tuberculosis, UniProt P9WQ81); test: Mycobacterium tuberculosis BioA enzyme inhibitor Measured in Biochemical System Using Plate Reader - 2163-02_Inhibitor_Dose_CherryPick_Activity.; type: functional, Mycobacterium tuberculosis UT205
Melanocortin receptor 4 = Melanocortin receptor 4 (Homo sapiens, UniProt P32245); type: functional, cell-based;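 note: Cell-based assay with luminescence read-out, confirmatory dose-response testing for agonist activity of biased ligands at MC4R; human U2OS cells with tagged receptor and beta-arrestin; potency of agonists that increase receptor coupling to beta-arrestin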
[9] = target: Ras and Rab interactor 1/Tyrosine-protein kinase ABL1 (Homo sapiens, UniProt P00519+Q13671); type: functional;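 note: biochemical TR-FRET dose-response test measuring inhibition of binding between Rin1 and Abl proteins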
Ras and Rab interactor 1/Tyrosine-protein kinase ABL1, sequence (P00519 whole entry): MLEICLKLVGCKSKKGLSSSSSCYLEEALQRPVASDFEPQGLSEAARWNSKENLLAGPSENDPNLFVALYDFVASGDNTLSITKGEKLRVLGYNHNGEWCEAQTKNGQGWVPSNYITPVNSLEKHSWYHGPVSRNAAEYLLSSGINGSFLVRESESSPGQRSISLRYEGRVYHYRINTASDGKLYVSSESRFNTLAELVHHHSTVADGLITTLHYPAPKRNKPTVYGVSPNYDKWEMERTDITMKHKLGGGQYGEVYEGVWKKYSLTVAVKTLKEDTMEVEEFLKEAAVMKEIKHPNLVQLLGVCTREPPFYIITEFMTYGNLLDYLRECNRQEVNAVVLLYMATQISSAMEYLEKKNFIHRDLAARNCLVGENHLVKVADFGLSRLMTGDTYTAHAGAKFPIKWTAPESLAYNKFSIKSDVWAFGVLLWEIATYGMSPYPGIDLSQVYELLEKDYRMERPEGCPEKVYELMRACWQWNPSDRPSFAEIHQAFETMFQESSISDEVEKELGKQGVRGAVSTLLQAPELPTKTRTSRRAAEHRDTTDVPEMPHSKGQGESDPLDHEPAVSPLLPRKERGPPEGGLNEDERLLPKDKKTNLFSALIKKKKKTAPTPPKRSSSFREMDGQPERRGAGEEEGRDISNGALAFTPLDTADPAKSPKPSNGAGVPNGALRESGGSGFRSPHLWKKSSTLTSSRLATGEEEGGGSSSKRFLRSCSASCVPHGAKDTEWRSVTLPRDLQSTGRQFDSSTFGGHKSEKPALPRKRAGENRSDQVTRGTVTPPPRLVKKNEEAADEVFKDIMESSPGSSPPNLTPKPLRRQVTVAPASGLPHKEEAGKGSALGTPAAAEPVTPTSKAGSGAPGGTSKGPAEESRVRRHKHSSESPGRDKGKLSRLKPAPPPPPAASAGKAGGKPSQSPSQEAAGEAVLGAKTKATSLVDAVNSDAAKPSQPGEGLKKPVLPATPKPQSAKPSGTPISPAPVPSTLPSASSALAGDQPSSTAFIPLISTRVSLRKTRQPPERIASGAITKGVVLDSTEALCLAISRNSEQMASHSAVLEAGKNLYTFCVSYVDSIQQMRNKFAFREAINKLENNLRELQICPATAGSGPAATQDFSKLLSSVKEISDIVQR
Ras and Rab interactor 1/Tyrosine-protein kinase ABL1, sequence (Q13671 whole entry): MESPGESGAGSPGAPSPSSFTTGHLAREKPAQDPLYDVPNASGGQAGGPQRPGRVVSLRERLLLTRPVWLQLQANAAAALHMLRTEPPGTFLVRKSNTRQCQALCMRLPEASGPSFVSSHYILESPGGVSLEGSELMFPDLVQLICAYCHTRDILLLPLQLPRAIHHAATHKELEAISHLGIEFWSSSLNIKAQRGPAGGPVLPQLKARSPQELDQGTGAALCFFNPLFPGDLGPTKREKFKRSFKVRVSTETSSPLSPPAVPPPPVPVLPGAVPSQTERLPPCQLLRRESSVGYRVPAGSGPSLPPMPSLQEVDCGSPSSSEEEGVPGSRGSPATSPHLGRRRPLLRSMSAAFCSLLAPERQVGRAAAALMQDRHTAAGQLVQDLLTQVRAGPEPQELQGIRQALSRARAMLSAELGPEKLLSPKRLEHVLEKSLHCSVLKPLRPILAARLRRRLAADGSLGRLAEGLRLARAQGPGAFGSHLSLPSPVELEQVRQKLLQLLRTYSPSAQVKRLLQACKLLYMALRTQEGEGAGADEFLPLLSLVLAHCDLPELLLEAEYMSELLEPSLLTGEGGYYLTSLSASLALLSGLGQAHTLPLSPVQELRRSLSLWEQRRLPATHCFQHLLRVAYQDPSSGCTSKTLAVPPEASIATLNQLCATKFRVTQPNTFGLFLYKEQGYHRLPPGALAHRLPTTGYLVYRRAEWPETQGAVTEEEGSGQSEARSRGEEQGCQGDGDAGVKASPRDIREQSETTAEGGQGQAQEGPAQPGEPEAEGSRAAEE

Interleukin-8 [10] = target: T2, Interleukin-8 (Homo sapiens, UniProt P10145); test: Dose Response confirmation of uHTS small molecule hits for cystic fibrosis induced NFkb Inhibitors in a TNFa-induced IL8 counterscreen.; type: functional; settings: read-out: IC50_Mean
T2 sequence (P10145 whole entry): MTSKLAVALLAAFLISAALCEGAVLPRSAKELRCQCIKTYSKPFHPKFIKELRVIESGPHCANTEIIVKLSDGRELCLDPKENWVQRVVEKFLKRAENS

Interleukin-8 [11] = target: T2, Interleukin-8; test: Dose Response confirmation of uHTS small molecule hits for cystic fibrosis induced NFkb Inhibitors in a PAF-induced IL8 counterscreen.; type: functional; settings: read-out: IC50_Mean
[12] = target: Photoreceptor-specific nuclear receptor (Homo sapiens, UniProt Q9Y5X4); type: functional, cell-based;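 note: CHO-S cells with Gal4-NCOR and VP16-NR2E3 two-hybrid luciferase reporter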
[13] = target: Rho-associated protein kinase 1 (Homo sapiens, UniProt Q13464); type: functional;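 note: measured within a broad kinome-wide panel profiling many kinases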
[14] = target: T3, Probable nicotinate-nucleotide adenylyltransferase (Staphylococcus aureus (strain N315), UniProt P65502); type: functional, Staphylococcus aureus subsp. aureus N315;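 for IC50 Mean: confirmatory dose-response retesting of NadD inhibitor hits first found in an ultra-high-throughput screen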
T3 sequence (P65502 whole entry): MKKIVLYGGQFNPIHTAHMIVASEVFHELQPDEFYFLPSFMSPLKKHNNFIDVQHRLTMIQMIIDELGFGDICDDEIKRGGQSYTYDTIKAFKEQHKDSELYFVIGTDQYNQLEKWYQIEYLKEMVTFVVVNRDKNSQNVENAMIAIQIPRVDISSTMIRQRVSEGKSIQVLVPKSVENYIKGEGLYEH

[15] = target: T3, Probable nicotinate-nucleotide adenylyltransferase; type: functional, Staphylococcus aureus subsp. aureus N315; settings: read-out: IC50_Mean
Hexokinase = Hexokinase (Trypanosoma brucei, UniProt Q38C41); test: Confirmation assay for inhibitors of Trypanosoma brucei hexokinase 1-Analogue-first series. [Related pubchem assays (depositor defined):AID1430, AID1632, AID2516, AID2560, AID2579, AID2600, AID449725, AID492951]; type: functional
[16] = target: Glucose-6-phosphate 1-dehydrogenase (Homo sapiens, UniProt P11413); test: inhibition of Homo sapiens G6PD, dose series – biochemical, fluorescence, selectivity assay for P. falciparum G6PD inhibitor project, dose response (AID 504792); type: functional
CHO = CHO cell viability loss, potency – luminescence, cytotoxicity control for TLR9-MyD88 binding inhibitor project, dose response (AID 588339); type: functional, cell-based, hamster; settings: Cricetulus griseus;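 note: CHO cells stably coexpressing TLR9 and MyD88 fusions from primary screen; compound exposure lasted 48 hours before viability readout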
Beta Lactamase = Beta Lactamase (Pseudomonas aeruginosa, UniProt Q932Y6); test: BLA reporter interference, concentration series – BLA reporter cells, FRET fluorescence, artefact control for TLR9-MyD88 binding inhibitor project, dose response (AID 588341); type: cell-based;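 note: cell based assay in CHO-K1 cells stably expressing beta-lactamase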
[17] = target: Mitochondrial peptide methionine sulfoxide reductase (Bos taurus, UniProt P54149); test: Absorbance-based biochemical high throughput dose response assay for activators of Methionine sulfoxide reductase A (MsrA).; type: functional
Mitochondrial peptide methionine sulfoxide reductase, sequence (P54149 whole entry): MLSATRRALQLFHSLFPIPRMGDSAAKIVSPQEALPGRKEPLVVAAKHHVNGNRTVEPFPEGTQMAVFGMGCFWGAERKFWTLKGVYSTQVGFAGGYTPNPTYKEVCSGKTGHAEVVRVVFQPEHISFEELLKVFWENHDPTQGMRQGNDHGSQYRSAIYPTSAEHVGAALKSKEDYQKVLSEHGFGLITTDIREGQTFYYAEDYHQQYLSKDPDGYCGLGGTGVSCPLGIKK

CHO-K1 = test: (§1) Counterscreen for antagonists of the orexin 1 receptor (OX1R; HCRTR1): Homogeneous time resolved fluorescence (HTRF)-based cell-based dose response assay to identify antagonists of the parental CHO-K1 cell line. [Related pubchem assays (depositor defined):AID434989, AID435008, AID463079, AID485270, AID492963, AID492964, AID492965, AID493232, AID504699, AID504701]; type: functional; settings: Cricetulus griseus
[18] = as §1, with “Fluorescence-based” for “Homogeneous time resolved fluorescence (HTRF)-based”, “cell-based high throughput” for “cell-based”, “CHO” for “CHO-K1”; type: functional
[19] = target: T4, Orexin/Hypocretin receptor type 1 (Homo sapiens, UniProt O43613); test: Homogeneous Time Resolved Fluorescence (HTRF)-based cell-based high throughput dose response assay for antagonists of the orexin 1 receptor (OX1R; HCRTR1). [Related pubchem assays (depositor defined):AID434989, AID435008, AID463079, AID485270, AID492963, AID492964, AID492965, AID493232, AID504717, AID504718]; type: functional
T4 sequence (O43613 whole entry): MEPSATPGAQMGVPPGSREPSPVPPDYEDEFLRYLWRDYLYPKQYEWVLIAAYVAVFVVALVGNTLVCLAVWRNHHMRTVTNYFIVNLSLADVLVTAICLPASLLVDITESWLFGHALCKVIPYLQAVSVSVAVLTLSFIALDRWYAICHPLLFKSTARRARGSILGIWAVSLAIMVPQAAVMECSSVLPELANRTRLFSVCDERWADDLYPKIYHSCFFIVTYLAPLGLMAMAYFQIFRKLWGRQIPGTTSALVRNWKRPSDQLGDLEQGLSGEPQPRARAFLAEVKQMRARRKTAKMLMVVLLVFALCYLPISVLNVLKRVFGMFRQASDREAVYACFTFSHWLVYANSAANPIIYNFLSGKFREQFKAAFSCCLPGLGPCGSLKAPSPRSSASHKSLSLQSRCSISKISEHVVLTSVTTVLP

[20] = target: T4, Orexin/Hypocretin receptor type 1; test: Fluorescence-based cell-based high throughput dose response assay for antagonists of the orexin 1 receptor (OX1R; HCRTR1). [Related pubchem assays (depositor defined):AID434989, AID435008, AID463079, AID485270, AID492963, AID492964, AID492965, AID493232, AID504717, AID504718]; type: functional
Orexin receptor type 2 [21] = target: T5, Orexin receptor type 2 (Homo sapiens, UniProt O43614); test: Counterscreen assay for antagonists of the orexin 1 receptor (OX1R; HCRTR1): Fluorescence-based cell-based dose response assay for antagonists of the orexin 2 receptor (OX2R; HCRTR2), run by assay provider.; type: functional
T5 sequence (O43614 whole entry): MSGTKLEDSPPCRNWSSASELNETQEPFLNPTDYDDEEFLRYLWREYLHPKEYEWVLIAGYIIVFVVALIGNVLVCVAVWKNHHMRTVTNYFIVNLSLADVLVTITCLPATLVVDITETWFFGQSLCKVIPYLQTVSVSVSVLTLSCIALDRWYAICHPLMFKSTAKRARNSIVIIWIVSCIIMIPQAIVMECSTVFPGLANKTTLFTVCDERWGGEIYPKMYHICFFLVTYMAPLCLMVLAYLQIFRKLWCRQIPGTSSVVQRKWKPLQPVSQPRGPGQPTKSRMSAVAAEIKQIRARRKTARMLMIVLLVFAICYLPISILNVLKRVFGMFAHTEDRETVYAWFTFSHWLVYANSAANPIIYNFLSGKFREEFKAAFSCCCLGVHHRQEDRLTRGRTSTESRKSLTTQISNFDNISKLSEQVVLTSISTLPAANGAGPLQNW

Orexin receptor type 2 [22] = target: T5, Orexin receptor type 2; test: Counterscreen assay for antagonists of the orexin 1 receptor (OX1R; HCRTR1): Homogeneous Time Resolved Fluorescence (HTRF)-based cell-based dose response assay for antagonists of the orexin 2 receptor (OX2R; HCRTR2), run by assay provider.; type: functional
[23] = target: Cell division cycle 7-related protein kinase (Homo sapiens, UniProt O00311); type: functional;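 note: value obtained from a kinome-wide kinase panel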
Cell division cycle 7-related protein kinase, sequence (O00311 whole entry): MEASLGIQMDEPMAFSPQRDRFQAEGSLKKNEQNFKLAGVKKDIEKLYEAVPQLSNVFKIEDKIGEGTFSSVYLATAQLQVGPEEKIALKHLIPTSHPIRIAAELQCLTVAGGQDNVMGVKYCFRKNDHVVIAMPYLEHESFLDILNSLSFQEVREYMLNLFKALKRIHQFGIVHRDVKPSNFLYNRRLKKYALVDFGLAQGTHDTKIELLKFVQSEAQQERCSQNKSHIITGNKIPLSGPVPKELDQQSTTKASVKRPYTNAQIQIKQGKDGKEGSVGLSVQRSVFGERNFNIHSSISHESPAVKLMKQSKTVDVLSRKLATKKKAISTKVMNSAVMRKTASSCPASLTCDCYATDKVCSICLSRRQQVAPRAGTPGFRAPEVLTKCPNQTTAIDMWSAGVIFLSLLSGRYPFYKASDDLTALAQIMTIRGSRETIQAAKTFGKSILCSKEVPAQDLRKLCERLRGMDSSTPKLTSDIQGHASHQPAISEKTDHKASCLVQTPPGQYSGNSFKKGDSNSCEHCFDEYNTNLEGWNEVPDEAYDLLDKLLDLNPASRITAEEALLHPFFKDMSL

[24] = target: Cyclin-dependent kinase 7 (Homo sapiens, UniProt P50613); type: functional;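 note: value comes from a kinome-wide kinase profiling panel in which CDK7 is one member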
Cyclin-dependent kinase 7, sequence (P50613 whole entry): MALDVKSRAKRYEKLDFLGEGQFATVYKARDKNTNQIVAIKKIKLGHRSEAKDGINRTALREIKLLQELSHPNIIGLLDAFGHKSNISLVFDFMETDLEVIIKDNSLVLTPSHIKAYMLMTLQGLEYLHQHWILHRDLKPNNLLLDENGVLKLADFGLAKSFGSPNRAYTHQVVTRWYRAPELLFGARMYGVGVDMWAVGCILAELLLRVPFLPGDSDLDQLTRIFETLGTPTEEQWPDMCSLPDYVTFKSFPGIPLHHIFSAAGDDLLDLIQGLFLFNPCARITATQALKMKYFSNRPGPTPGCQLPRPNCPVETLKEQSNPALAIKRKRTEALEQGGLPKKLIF

[25] = target: Cyclin-dependent kinase 9 (Homo sapiens, UniProt P50750); type: functional;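 note: value from the CDK9 entry of a kinome-spanning kinase panel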
[26] = bead-based luminescence quenchers, dual-tagged ARNT – biochemical, AlphaScreen, cherry-pick, artefact control for ARNT-TACC3 interaction inhibitor project, dose response (AID 651705); type: functional;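 note: AlphaScreen bead proximity signal that flags compounds interfering with the detection technology; potency reflects signal decrease which marks the compound as an assay artifact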
[27] = target: Potassium voltage-gated channel subfamily KQT member 2 (Rattus norvegicus, UniProt O88943); test: blockers of KCNQ2 channel current – cell-based, automated electrophysiology, set II, rat KCNQ2, dose response (AID 588637); type: functional
Potassium voltage-gated channel subfamily KQT member 2, sequence (O88943 whole entry): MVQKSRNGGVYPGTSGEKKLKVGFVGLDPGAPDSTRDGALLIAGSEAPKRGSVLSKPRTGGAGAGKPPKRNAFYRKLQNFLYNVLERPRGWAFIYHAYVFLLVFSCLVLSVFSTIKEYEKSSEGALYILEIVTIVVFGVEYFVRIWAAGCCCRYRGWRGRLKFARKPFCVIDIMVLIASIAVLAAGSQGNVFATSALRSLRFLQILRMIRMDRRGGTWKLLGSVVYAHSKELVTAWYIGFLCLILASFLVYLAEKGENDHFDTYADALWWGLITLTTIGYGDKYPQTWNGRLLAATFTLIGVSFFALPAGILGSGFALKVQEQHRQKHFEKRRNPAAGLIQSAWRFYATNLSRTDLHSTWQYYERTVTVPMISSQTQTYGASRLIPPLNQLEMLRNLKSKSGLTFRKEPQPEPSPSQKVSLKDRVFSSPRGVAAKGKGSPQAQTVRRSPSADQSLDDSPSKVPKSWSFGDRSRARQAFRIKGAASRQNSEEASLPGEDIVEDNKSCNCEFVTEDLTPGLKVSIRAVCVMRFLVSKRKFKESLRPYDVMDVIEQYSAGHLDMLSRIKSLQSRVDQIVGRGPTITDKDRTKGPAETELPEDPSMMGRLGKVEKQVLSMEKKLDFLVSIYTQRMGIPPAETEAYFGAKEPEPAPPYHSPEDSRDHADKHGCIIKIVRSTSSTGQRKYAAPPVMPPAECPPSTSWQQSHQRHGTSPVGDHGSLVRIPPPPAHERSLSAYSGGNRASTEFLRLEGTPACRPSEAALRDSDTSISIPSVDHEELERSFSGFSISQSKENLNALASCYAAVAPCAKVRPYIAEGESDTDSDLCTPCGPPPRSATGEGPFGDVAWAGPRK

Cc1ccc(S(=O)(=O)N2CCN(C(=O)C3CCN(c4ncnc5sc(C)c(C)c45)CC3)CC2)c(C)c1
AC50 [1]: 2.12 µM (active) | AC50 [2]: 46 µM (active) | AC50 [3]: 1.43 µM (active) | IC50 (Protein Wnt-3a): 14.7 µM (active)

Nc1ccc(/N=N/c2ccccc2)cc1
AC50 [4]: 50.1 µM (inconclusive)

O=C1CC(c2ccc(F)cc2)Cc2[nH]c3cc(Cl)ccc3c(=O)c21 (stereo not given)
Ki [5]: 3.98 µM (active) | Ki [6]: 3.98 µM (active) | Ki [7]: 6.31 µM (active)

C=CCn1c(SCc2c(C(=O)OC)sc(N)c2C(=O)OC)nnc1-c1ccc(Br)cc1
AC50 [8]: 0.233 µM (active)

COc1ccccc1-c1cc(NC(C)=O)c2ncc(-c3ccccc3)n2c1
EC50 (Melanocortin receptor 4): > 89.2 µM (inactive)

CCSCCO/C(O)=C1\C(C)=NC2=C(C(=O)CCC2)C1c1coc2ccccc2c1=O (stereo not given)
IC50 [9]: > 73.5 µM (inactive)

COC(=O)N1C(=O)[C@@](c2ccc(OC)cc2)(C(C)C)N1C(=O)OC
IC50 (Interleukin-8 [10]): 3.22 µM (active) | IC50 (Interleukin-8 [11]): 2.4 µM (active)

Cc1ccc(CN2CC(C(=O)Nc3ncc(C)s3)CC2=O)cc1 (stereo not given)
IC50 [12]: 1.26 µM (active)

Nc1nonc1-n1cc(CO)nn1
Ki [13]: 39.8 µM (active) | Ki [7]: 63.1 µM (active)

O=C1CC(=C2c3ccccc3-c3ccccc32)C(=O)N1CCN1CCN(c2cccc(Cl)c2)CC1
IC50 [14]: 13.5 µM (active) | IC50 [15]: 26.6 µM (active)

O=c1c2cc([N+](=O)[O-])ccc2sn1-c1ccccc1
IC50 (Hexokinase): > 25 µM (inactive) | IC50 [16]: 11.3 µM (active) | IC50 (CHO): 12.1 µM (inactive) | IC50 (Beta Lactamase): > 49.7 µM (inactive) | EC50 [17]: > 104 µM (inactive)

Cc1c(C(=O)OC(C)C(=O)N(C)Cc2ccccc2)oc2ccccc12 (stereo not given)
IC50 (CHO-K1): > 66.2 µM (inactive) | IC50 [18]: 43.3 µM (inactive) | IC50 [19]: 0.717 µM (active) | IC50 [20]: 6.49 µM (active) | IC50 (Orexin receptor type 2 [21]): 9.6 µM (active) | IC50 (Orexin receptor type 2 [22]): 5.52 µM (active)

COCCN(CCOC)c1nc(OC)cc(-c2c[nH]c3ncccc23)n1
Ki [23]: 0.1 µM (active) | Ki [24]: > 2.51 µM (inactive) | Ki [25]: > 2.51 µM (inactive)

Nn1c(SCC(=O)Nc2ccc3c(c2)OCCO3)nnc1-c1ccccn1
AC50 [26]: 107 µM (active)

O=C(CN1CCCc2ccccc21)NCCc1ccc(Cl)cc1
IC50 [27]: 8.54 µM (active)

CCc1cc(C(=O)OCC(=O)N2CCC(c3ccccc3)=N2)sc1C
IC50 (CHO-K1): > 66.2 µM (inactive) | IC50 [18]: > 49.8 µM (inactive) | IC50 [19]: 2.45 µM (active) | IC50 [20]: 3.47 µM (active) | IC50 (Orexin receptor type 2 [21]): > 88.8 µM (inactive) | IC50 (Orexin receptor type 2 [22]): > 50 µM (inactive)
